Assay results: patent US3989836A, “Method for treating cardiovascular circulatory insufficiencies and hypotonia with 2-hydroxyphenyl-1-oxa-4-azaspiroalkane derivatives” (Warner-Lambert Company, priority 1973, dated 1976)
Where two headings read alike, the source gives them in different places.

Tests used:
Type in all cases: in vivo
average blood pressure [1] = assay: Sympathomimetic action: increase of the average blood pressure in % of initial value (awake dogs); details: for increase of the average blood pressure: i.g. up to 20 mg/kg
Procedure: Ii. sympathomimetic action was determined by measurement of the arterial and venous blood pressure using Statham transducers. The measured values were recorded by means of a direct recording instrument. In the case of intragastric administration, the substances were administered in the form of an aqueous solution by means of a stomach probe. Quiet and compatible dogs were trained to lie, without sedation, for a few hours on an operating board. Under local anesthesia, a catheter was introduced into the arteria femoralis. A measurement of arterial blood pressure was then carried out using the catheter and a Statham transducer.

average blood pressure [2] = assay: Sympathomimetic action: increase of the average blood pressure by 25% over the initial value (narcotised dogs); details: for ED (25% increase): Canis lupus familiaris, read-out: dose for increase of the average blood pressure by 25% over the initial value
Procedure: Ii. sympathomimetic action was determined by measurement of the arterial and venous blood pressure using Statham transducers. The measured values were recorded by means of a direct recording instrument. As experimental animals, adult dogs of both sexes, were used; these had been narcotised with pentobarbital. During the experiment, the animals were kept at their specific body temperature by means of rectum-controlledinfra-red lamps. The compounds tested were injected, in the form of an isotonic solution, into the side branch of the vena femoralis. In the case of intraduodenal administration, the animals were laparotomised, and a cannula was fixed into the small intestine so that the substance, in the form of an aqueous solution, could be introduced directly into the intestine. Furthermore, the pylorus was ligatured in order to prevent regurgitation of the substance into the stomach. In the case of intragastric administration, the substances were administered in the form of an aqueous solution by means of a stomach probe.

[3] = Toxicity on mice (LD50 i.g., largest dose i.v. at which all animals survive); details: for LD50: mouse, in vivo, po; for LD50 i.g.: mice, footnote: not determinable because of insufficient resorption, no dosage-dependent death of the animals
Procedure: I. toxicity was determined on mice in the usual manner; the test and comparison substances being administered in aqueous solution by means of a stomach probe.

[4] = as above

Row | SMILES | duration of increase of the average blood pressure (average blood pressure [1]; i.g. 4 mg/kg) | increase of the average blood pressure in % of initial value (average blood pressure [1]; i.g. 4 mg/kg) [%] | increase of the average blood pressure in % of initial value (average blood pressure [1]; i.v. 0.05 mg/kg) | ED (25% increase) (average blood pressure [2]; intraduodenal, i.d.) [mg/kg] | duration of increase of the average blood pressure by 25% over the initial value (average blood pressure [2]; i.d. 2.0 mg/kg) | LD50 [3] [mg/kg] | largest dose i.v. at which all animals survive [4] [mg/kg] | duration of increase of the average blood pressure (average blood pressure [1]; i.g. 16 mg/kg) | increase of the average blood pressure in % of initial value (average blood pressure [1]; i.g. 16 mg/kg) [%] | increase of the average blood pressure in % of initial value (average blood pressure [1]; i.v. 1 mg/kg) | ED (25% increase) (average blood pressure [2]; po, i.g.) [mg/kg] | duration of increase of the average blood pressure by 25% over the initial value (average blood pressure [2]; i.g. 4.0-16.0 mg/kg) | increase of the average blood pressure (average blood pressure [1]) | LD50 i.g. [3] | duration of increase of the average blood pressure (average blood pressure [1]; i.g. 2 mg/kg) | increase of the average blood pressure in % of initial value (average blood pressure [1]; i.g. 2 mg/kg) [%] | duration of increase of the average blood pressure by 25% over the initial value (average blood pressure [2]; i.g. 2.0 mg/kg)
1 | Oc1cccc(C2CNC3(CCCCC3)O2)c1 (stereo not shown) [A, 2-(3'-hydroxyphenyl)-1-oxa-4-azaspiro[4,5]decane] | > 60 ' | 40 | 50-80% | 2 | > 50 ' | > 400 | 3.3 | – | – | – | – | – | – | – | – | – | –
2 | CC1=CC2(CC(C)(C)C1)NCC(c1cccc(O)c1)O2 (stereo not shown) [C, 7,9,9-trimethyl-2-(3'-hydroxyphenyl)-1-oxa-4-azaspiro-[4,5]dec-6-ene] | – | – | – | – | – | ~1200 | 20.7 | 34 ' | 50 | 30-60% | 4 to 16 | 60 ' | – | – | – | – | –
3 | NCC(O)c1cccc(O)c1 (stereo not shown) [D, 1-(3'-hyroxyphenyl)-2-aminoethanol, reference compound] | – | – | 50-70% | > 20 | – | – | 3.3 | – | – | – | – | – | without effect | not determinable | – | – | –
4 | CCNCC(O)c1cccc(O)c1 (stereo not shown) [E, 1-(3'-hydroxyphenyl)-2-ethylaminoethanol, reference compound] | – | – | 25% | > 20 | – | – | 7.25 | – | – | – | – | – | without effect | not determinable | – | – | –
5 | Oc1cccc(C2CNC3(CCCCCC3)O2)c1 (stereo not shown) [B, 2-(3'-hydroxyphenyl)-1-oxa-4-azaspiro[4,6]undecane] | – | – | 40-70% | – | – | ~400 | 3.3 | – | – | – | 2 | – | – | – | 70 ' | 35 | > 60 '
